In US12551523B2, “HIF-1 activator” (NUTRITION ACT CO., LTD., priority 2021, dated 2026):

Tested on: K562 cells
Experiment: GYPA gene expression in K562 cells (quantitative real-time PCR)
Assay type: cell-based, human
Settings: olive leaf components alone or in combination
Protocol: K562 cells (Riken Cell Bank) were seeded in a 6-well plate using RPMI 1640 Medium (Gibco Waltham, MA, USA) containing 10% FBS and 1% penicillin/streptomycin solution added to a cell concentration of 2×10^4 cell/ml, and the cells were cultured in 5% CO2 at 37° C., 95% humidification. On the following day, the medium was replaced with a mixed solution of oleuropein (OP) and oleuroside (OS), and reaction was conducted for 6 days. The mixing proportions were as follows: (a) combinations of 35.36 μM OP and different concentrations of OS (1.18, 3.54, 5.23, 7.10, 17.68, 23.57, 35.36 and 43.85 μM), and (b) combinations of 5.23 μM OS and different concentrations of OP (0.52, 2.62, 5.23, 10.46, 20.92, 35.36, 41.84 and 52.30 μM). The medium was replaced every 3 days.
After 6 days of reaction, the medium was removed from the cells, Isogen (Nippon Gene Co., Ltd.) was added for sonication, and the total RNA was extracted according to the manufacturer's protocol. The RNA concentration was measured using a NanoDrop 2000 spectrometer (Thermo Scientific, USA). For cDNA synthesis, 4 μl of SuperScript IV VILO Master Mix (Invitrogen) and 16 μl of total RNA solution (final RNA concentration: 10 ng/20 μl) were mixed in a PCR tube, and a MiniAmp Plus thermal cycler (Applied Biosystems) was used for reverse transcription. The thermal cycle was 10 minutes at 25° C., 10 minutes at 50° C., 5 minutes at 85° C. and 1 minute at 4° C. Quantitative real-time PCR was carried out for gene expression analysis. The Taqman primer and probe set used for the target gene expression analysis was the following: GYPA (Hs011068079_s1). ACTB (Hs03023880 g1 was used as the endogenous standard. For Taqman real-time PCR amplification reaction and gene expression level quantitation, 10 μL of TaqMan Gene Expression Master Mix (Applied Biosystems), 1 μL of each primer and probe set and 9 μL of cDNA (final cDNA concentration: […]) were mixed, and an AB 7500 Fast Real-Time PCR system (Applied Biosystems) was used. The thermal cycle was 2 minutes at 50° C., 10 minutes at 95° C., 15 seconds at 95° C. (50 cycles) and 1 minute at 60° C. The gene expression levels were calculated by the ΔΔCt method.
Two types of olive leaf extract with different content ratios of oleuropein and oleuroside were used to treat K562 cells, and the GYPA gene expression levels were measured by real-time PCR, as an erythroid differentiation marker. The test substances used were olive leaf extract A: 120 μg/mL (1.89 μg oleuroside: 15.44 μg oleuropein) (“extract A”, corresponding to the invention), and olive leaf extract B: 120 μg/mL (1.56 μg oleuroside: 40.26 μg oleuropein) (“extract B”).
The hydroxytyrosol, oleuropein, oleuroside, apigenin, apigenin-7-glucoside, apigenin-7-O-rutinoside, luteolin and luteolin-7-O-glucoside present in olive leaves were used either alone or in combination to measure the GYPA gene expression effect by the same method as for the synergistic effect with OP/OS at 10:1 to 1:10 using GYPA as the marker. GYPA gene expression increased only with the combination of oleuroside and oleuropein.

Row | Structure (SMILES) | GYPA expression increase
1 | O=c1cc(-c2ccc(O)cc2)oc2cc(O[C@@H]3O[C@H](CO)[C@@H](O)[C@H](O)[C@H]3O)cc(O)c12 [A7G, Apigenin-7-O-glucoside] | No
2 | C[C@@H]1O[C@@H](OC[C@H]2O[C@@H](Oc3cc(O)c4c(=O)cc(-c5ccc(O)cc5)oc4c3)[C@H](O)[C@@H](O)[C@@H]2O)[C@H](O)[C@H](O)[C@H]1O [A7R, Apigenin-7-O-rutinoside] | No
3 | O=c1cc(-c2ccc(O)cc2)oc2cc(O)cc(O)c12 [A, Apigenin] | No
4 | O=c1cc(-c2ccc(O)c(O)c2)oc2cc(O[C@@H]3O[C@H](CO)[C@@H](O)[C@H](O)[C@H]3O)cc(O)c12 [L7G, Luteolin-7-O-glucoside] | No
5 | O=c1cc(-c2ccc(O)c(O)c2)oc2cc(O)cc(O)c12 [L, Luteolin] | No
6 | C/C=C1/[C@H](O[C@@H]2O[C@H](CO)[C@@H](O)[C@H](O)[C@H]2O)OC=C(C(=O)OC)[C@H]1CC(=O)OCCc1ccc(O)c(O)c1 [OP, Oleuropein] | No

Same assay, conditions: olive leaf components alone or in combination, listed as oleuropein

Row | Structure (SMILES) | GYPA expression increase
7 | C/C=C1/[C@H](O[C@@H]2O[C@H](CO)[C@@H](O)[C@H](O)[C@H]2O)OC=C(C(=O)OC)[C@H]1CC(=O)OCCc1ccc(O)c(O)c1 [OP, Oleuropein] | No effect
